# Assay results taken from BindingDB's records for doi:10.1016/s0968-0896(99)00101-7 (Otsuka Pharmaceutical Co., Ltd, 1999).
# Target: Vasopressin V1a receptor (Homo sapiens, UniProt P37288)
# Experiment: Radioligand Binding Assay to HeLa Cells
# Conditions: not given
# Experimental: (§1) After reaching confluence in 12-well or 24-well dishes, the cells were washed twice with ice-cold PBS and incubated for 2 hr with [3H]-AVP at 4 deg C. For the competition experiment, test compounds were dissolved in dimethyl sulfoxide, diluted with DMEM medium and added into the wells at several appropriate concentrations. […] The protein content of the lysed cells was determined by the method of Bradford.
# Chain of Vasopressin V1a receptor (P37288 whole entry): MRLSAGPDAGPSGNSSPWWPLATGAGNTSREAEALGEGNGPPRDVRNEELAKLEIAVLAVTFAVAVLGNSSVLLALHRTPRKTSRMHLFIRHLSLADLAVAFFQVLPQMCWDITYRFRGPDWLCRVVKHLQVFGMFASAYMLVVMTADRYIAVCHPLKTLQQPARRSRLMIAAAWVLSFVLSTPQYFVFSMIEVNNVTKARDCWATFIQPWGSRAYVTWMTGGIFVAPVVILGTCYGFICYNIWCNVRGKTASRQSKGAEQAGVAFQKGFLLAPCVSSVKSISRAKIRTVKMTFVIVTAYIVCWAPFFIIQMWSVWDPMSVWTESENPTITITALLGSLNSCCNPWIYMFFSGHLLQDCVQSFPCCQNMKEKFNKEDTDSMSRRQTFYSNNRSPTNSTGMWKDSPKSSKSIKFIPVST
row,IC50 [nM],SMILES
1,39,"COc1cc(NC(=O)c2ccccc2C)ccc1C(=O)N1CCCC(O)c2cc(Cl)ccc21 (stereo not drawn) [benzazepine derivative, 33]"
2,7,"COc1cc(C(=O)N2CCCC(O)c3cc(Cl)ccc32)ccc1NC(=O)c1ccccc1C (stereo not drawn) [benzazepine derivative, 34]"

# Same assay, conditions: pH 7.4; 4 °C
row,IC50 [nM],SMILES
1,64,"CNC1CCCN(C(=O)c2ccc(NC(=O)c3ccccc3C)cc2)c2ccc(Cl)cc21 (stereo not drawn) [benzazepine derivative, 13a]"
2,190,"Cc1ccccc1C(=O)Nc1ccc(C(=O)N2CCCC(N(C)C)c3cc(Cl)ccc32)cc1 (stereo not drawn) [benzazepine derivative, 14]"
3,1200,"Cc1ccccc1C(=O)Nc1ccc(C(=O)N2CCCC(N(C)C)c3ccc(Cl)cc32)cc1 (stereo not drawn) [benzazepine derivative, 15]"
4,540,"Cc1ccccc1C(=O)Nc1ccc(C(=O)N2CCCC(N(C)C)c3cccc(Cl)c32)cc1 (stereo not drawn) [benzazepine derivative, 16]"
5,1700,"Cc1ccccc1C(=O)Nc1ccc(C(=O)N2CCCC(N(C)C)c3c(Cl)cccc32)cc1 (stereo not drawn) [benzazepine derivative, 17]"
6,45,"C=CCNC1CCCN(C(=O)c2ccc(NC(=O)c3ccccc3C)cc2)c2ccc(Cl)cc21 (stereo not drawn) [benzazepine derivative, 18]"
7,350,"C=CCN(C)C1CCCN(C(=O)c2ccc(NC(=O)c3ccccc3C)cc2)c2ccc(Cl)cc21 (stereo not drawn) [benzazepine derivative, 19]"
8,17,"Cc1ccccc1C(=O)Nc1ccc(C(=O)N2CCCC(O)c3cc(Cl)ccc32)cc1 (stereo not drawn) [benzazepine derivative, 20]"
9,34,"COC1CCCN(C(=O)c2ccc(NC(=O)c3ccccc3C)cc2)c2ccc(Cl)cc21 (stereo not drawn) [benzazepine derivative, 21]"
10,53,"C=CCOC1CCCN(C(=O)c2ccc(NC(=O)c3ccccc3C)cc2)c2ccc(Cl)cc21 (stereo not drawn) [benzazepine derivative, 22]"
11,290,"Cc1ccccc1C(=O)Nc1ccc(C(=O)N2CCCC(O)c3cc(Cl)ccc32)c(Cl)c1 (stereo not drawn) [benzazepine derivative, 30]"
12,31,"Cc1ccccc1C(=O)Nc1ccc(C(=O)N2CCCC(O)c3cc(Cl)ccc32)cc1Cl (stereo not drawn) [benzazepine derivative, 31]"

# Target: Vasopressin V2 receptor (Homo sapiens, UniProt P30518)
# Sequence (P30518 whole entry): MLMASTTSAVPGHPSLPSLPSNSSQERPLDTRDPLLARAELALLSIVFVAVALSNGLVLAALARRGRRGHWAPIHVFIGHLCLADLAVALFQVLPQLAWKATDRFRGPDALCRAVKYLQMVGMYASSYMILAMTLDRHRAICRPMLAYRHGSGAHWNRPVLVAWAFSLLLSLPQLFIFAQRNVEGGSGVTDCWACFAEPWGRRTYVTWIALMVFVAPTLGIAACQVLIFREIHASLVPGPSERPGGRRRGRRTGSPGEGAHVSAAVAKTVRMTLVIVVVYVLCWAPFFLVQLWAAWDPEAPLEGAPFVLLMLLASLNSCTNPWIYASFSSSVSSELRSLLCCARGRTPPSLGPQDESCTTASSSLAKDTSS
# Experiment: Radioligand Binding Assay to HeLa Cells
# Conditions: pH 7.4; 4 °C
# Experimental: as §1
row,IC50 [nM],SMILES
1,7,"CNC1CCCN(C(=O)c2ccc(NC(=O)c3ccccc3C)cc2)c2ccc(Cl)cc21 (stereo not drawn) [benzazepine derivative, 13a]"
2,25,"Cc1ccccc1C(=O)Nc1ccc(C(=O)N2CCCC(N(C)C)c3cc(Cl)ccc32)cc1 (stereo not drawn) [benzazepine derivative, 14]"
3,63,"Cc1ccccc1C(=O)Nc1ccc(C(=O)N2CCCC(N(C)C)c3ccc(Cl)cc32)cc1 (stereo not drawn) [benzazepine derivative, 15]"
4,140,"Cc1ccccc1C(=O)Nc1ccc(C(=O)N2CCCC(N(C)C)c3cccc(Cl)c32)cc1 (stereo not drawn) [benzazepine derivative, 16]"
5,190,"Cc1ccccc1C(=O)Nc1ccc(C(=O)N2CCCC(N(C)C)c3c(Cl)cccc32)cc1 (stereo not drawn) [benzazepine derivative, 17]"
6,18,"C=CCNC1CCCN(C(=O)c2ccc(NC(=O)c3ccccc3C)cc2)c2ccc(Cl)cc21 (stereo not drawn) [benzazepine derivative, 18]"
7,97,"C=CCN(C)C1CCCN(C(=O)c2ccc(NC(=O)c3ccccc3C)cc2)c2ccc(Cl)cc21 (stereo not drawn) [benzazepine derivative, 19]"
8,3,"Cc1ccccc1C(=O)Nc1ccc(C(=O)N2CCCC(O)c3cc(Cl)ccc32)cc1 (stereo not drawn) [benzazepine derivative, 20]"
9,5,"COC1CCCN(C(=O)c2ccc(NC(=O)c3ccccc3C)cc2)c2ccc(Cl)cc21 (stereo not drawn) [benzazepine derivative, 21]"
10,9,"C=CCOC1CCCN(C(=O)c2ccc(NC(=O)c3ccccc3C)cc2)c2ccc(Cl)cc21 (stereo not drawn) [benzazepine derivative, 22]"
11,8,"Cc1ccccc1C(=O)Nc1ccc(C(=O)N2CCCC(O)c3cc(Cl)ccc32)c(Cl)c1 (stereo not drawn) [benzazepine derivative, 30]"
12,28,"Cc1ccccc1C(=O)Nc1ccc(C(=O)N2CCCC(O)c3cc(Cl)ccc32)cc1Cl (stereo not drawn) [benzazepine derivative, 31]"
13,13,"COc1cc(NC(=O)c2ccccc2C)ccc1C(=O)N1CCCC(O)c2cc(Cl)ccc21 (stereo not drawn) [benzazepine derivative, 33]"
14,5,"COc1cc(C(=O)N2CCCC(O)c3cc(Cl)ccc32)ccc1NC(=O)c1ccccc1C (stereo not drawn) [benzazepine derivative, 34]"
